Results from BigSolDB 2.1.

Cc1cc(Cl)cc(C(=O)O)c1N
solubility (mole fraction)
Details	278.15 K	283.15 K	288.15 K	293.15 K	298.15 K	303.15 K	308.15 K	313.15 K	318.15 K	323.15 K
in acetone	0.0119	0.0131	0.0152	0.0175	0.0199	0.0227	0.0266	0.0315	0.0371	0.0436
in acetonitrile	0.00122	0.00126	0.00139	0.00154	0.00173	0.00198	0.0023	0.0027	0.00331	0.00423
in ethanol	0.00708	0.00736	0.00758	0.00807	0.00867	0.00934	0.0103	0.0114	0.0129	0.0144
in ethyl acetate	0.00636	0.0067	0.0071	0.00769	0.00829	0.00933	0.0105	0.012	0.0138	0.0162
in isopropanol	0.00728	0.00744	0.0077	0.00809	0.00856	0.00911	0.00977	0.0105	0.0114	0.0123
in methanol	0.00128	0.00157	0.00199	0.00241	0.00305	0.00375	0.00452	0.00556	0.00672	0.00815
in n-butanol	0.00553	0.0057	0.00609	0.00648	0.00729	0.0082	0.00931	0.0109	0.0131	0.016
in n-hexane	0.000105	0.000166	0.000245	0.000343	0.000443	0.000558	0.000685	0.000821	0.000959	0.00113
in n-propanol	0.00516	0.00552	0.00579	0.00646	0.0072	0.00803	0.00936	0.0109	0.0128	0.0153
